Measurements as given in PubChem BioAssay (NCI).
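Briefly, cells in 96-well plates were exposed to five compound concentrations for 48 h, and endpoints were estimated by linear interpolation. GI50 marks 50% less growth. At the TGI there is no net growth.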

Columns and labels:
Assay in all cases: inhibition of tumour cell growth, NCI panel, 48 h
HCC-2998 colon = tested on: HCC-2998 colon
SF-295 CNS = tested on: SF-295 CNS
CCRF-CEM leukemia = tested on: CCRF-CEM leukemia
U251 CNS = tested on: U251 CNS
OVCAR-4 ovarian = tested on: OVCAR-4 ovarian
MDA-MB-435 = tested on: MDA-MB-435
UO-31 renal = tested on: UO-31 renal
NCI/ADR-RES ovarian = tested on: NCI/ADR-RES ovarian
MOLT-4 leukemia = tested on: MOLT-4 leukemia
NCI-H522 lung = tested on: NCI-H522 lung
HOP-62 NSCLC = tested on: HOP-62 NSCLC
OVCAR-8 ovarian = tested on: OVCAR-8 ovarian
HS 578T breast = tested on: HS 578T breast
SNB-75 CNS = tested on: SNB-75 CNS
BT-549 breast = tested on: BT-549 breast
HOP-92 NSCLC = tested on: HOP-92 NSCLC
SNB-19 CNS = tested on: SNB-19 CNS
SK-MEL-5 melanoma = tested on: SK-MEL-5 melanoma
PC-3 prostate = tested on: PC-3 prostate
KM12 colon = tested on: KM12 colon
LOX IMVI melanoma = tested on: LOX IMVI melanoma
HT29 colon = tested on: HT29 colon
SR leukemia = tested on: SR leukemia
UACC-257 melanoma = tested on: UACC-257 melanoma
TK-10 renal = tested on: TK-10 renal
UACC-62 melanoma = tested on: UACC-62 melanoma
MDA-MB-231 breast = tested on: MDA-MB-231 breast
CAKI-1 renal = tested on: CAKI-1 renal
SK-OV-3 ovarian = tested on: SK-OV-3 ovarian
SF-268 CNS = tested on: SF-268 CNS
IGROV1 ovarian = tested on: IGROV1 ovarian
NCI-H460 lung = tested on: NCI-H460 lung
SN12C renal = tested on: SN12C renal
MALME-3M melanoma = tested on: MALME-3M melanoma
A549 NSCLC = tested on: A549 NSCLC
RPMI-8226 leukemia = tested on: RPMI-8226 leukemia
MCF7 breast = tested on: MCF7 breast
NCI-H23 lung = tested on: NCI-H23 lung
OVCAR-3 ovarian = tested on: OVCAR-3 ovarian
RXF 393 renal = tested on: RXF 393 renal
HL-60(TB) leukemia = tested on: HL-60(TB) leukemia
K-562 leukemia = tested on: K-562 leukemia
SK-MEL-28 melanoma = tested on: SK-MEL-28 melanoma
M14 melanoma = tested on: M14 melanoma
SW-620 colon = tested on: SW-620 colon
786-0 renal = tested on: 786-0 renal
EKVX NSCLC = tested on: EKVX NSCLC
NCI-H226 lung = tested on: NCI-H226 lung
HCT-116 colon = tested on: HCT-116 colon
T-47D breast = tested on: T-47D breast
COLO 205 colon = tested on: COLO 205 colon
DU-145 prostate = tested on: DU-145 prostate
SK-MEL-2 melanoma = tested on: SK-MEL-2 melanoma
A498 renal = tested on: A498 renal

## CN(C)c1ccc2nc3ccc(=[N+](C)C)c([N+](=O)[O-])c-3sc2c1
HCC-2998 colon
  GI50: 5.18 µM
  TGI: 16.8 µM
SF-295 CNS
  GI50: 3.04 µM
  TGI: 16.6 µM
CCRF-CEM leukemia
  GI50: 0.908 µM
  TGI: 15.4 µM
U251 CNS
  GI50: 1.21 µM
  TGI: 11.1 µM
OVCAR-4 ovarian
  GI50: 0.906 µM
  TGI: 3.04 µM
MDA-MB-435
  GI50: 2.46 µM
  TGI: 11.4 µM
UO-31 renal
  GI50: 5.98 µM
  TGI: 23.4 µM
NCI/ADR-RES ovarian
  GI50: 2.33 µM
  TGI: 8.13 µM
MOLT-4 leukemia
  GI50: 2.3 µM
  TGI: 10.6 µM
NCI-H522 lung
  GI50: 1.81 µM
  TGI: 5.19 µM
HOP-62 NSCLC
  GI50: 8.6 µM
  TGI: 22.2 µM
OVCAR-8 ovarian
  GI50: 1.87 µM
  TGI: 10.4 µM
HS 578T breast
  GI50: 3.33 µM
  TGI: 26.1 µM
SNB-75 CNS
  GI50: 2.93 µM
  TGI: 13.3 µM
BT-549 breast
  GI50: 8.29 µM
  TGI: 21.7 µM
HOP-92 NSCLC
  GI50: 2.09 µM
  TGI: 11.3 µM
SNB-19 CNS
  GI50: 0.483 µM
  TGI: 17.4 µM
SK-MEL-5 melanoma
  GI50: 1.44 µM
  TGI: 12.1 µM
PC-3 prostate
  GI50: 0.599 µM
  TGI: 6.78 µM
KM12 colon
  GI50: 2.08 µM
  TGI: 16.4 µM
LOX IMVI melanoma
  GI50: 1.32 µM
  TGI: 7.85 µM
HT29 colon
  GI50: 6.04 µM
  TGI: 25.1 µM
SR leukemia
  GI50: 0.797 µM
  TGI: 17.5 µM
UACC-257 melanoma
  GI50: 2.85 µM
  TGI: 8.59 µM
TK-10 renal
  GI50: 7.46 µM
  TGI: 23.5 µM
UACC-62 melanoma
  GI50: 1.1 µM
  TGI: 3 µM
MDA-MB-231 breast
  GI50: 0.578 µM
  TGI: 4.46 µM
CAKI-1 renal
  GI50: 2.59 µM
  TGI: 13.1 µM
SK-OV-3 ovarian
  GI50: 11.8 µM
  TGI: 28.9 µM
SF-268 CNS
  GI50: 2.1 µM
  TGI: 13.2 µM
IGROV1 ovarian
  GI50: 2.56 µM
NCI-H460 lung
  GI50: 2.59 µM
  TGI: 15.2 µM
SN12C renal
  GI50: 1.37 µM
  TGI: 5.26 µM
MALME-3M melanoma
  GI50: 2.38 µM
  TGI: 8.97 µM
A549 NSCLC
  GI50: 1.46 µM
  TGI: 18.1 µM
RPMI-8226 leukemia
  GI50: 0.536 µM
  TGI: 15.9 µM
MCF7 breast
  GI50: 1.79 µM
  TGI: 5.9 µM
NCI-H23 lung
  GI50: 1.87 µM
  TGI: 9.65 µM
OVCAR-3 ovarian
  GI50: 0.271 µM
  TGI: 0.926 µM
RXF 393 renal
  GI50: 4.41 µM
  TGI: 18.1 µM
HL-60(TB) leukemia
  GI50: 0.302 µM
  TGI: 4.7 µM
K-562 leukemia
  GI50: 1.94 µM
  TGI: 19.4 µM
SK-MEL-28 melanoma
  GI50: 10.3 µM
  TGI: 22 µM
M14 melanoma
  GI50: 1.32 µM
  TGI: 10.8 µM
SW-620 colon
  GI50: 2.57 µM
  TGI: 12.3 µM
786-0 renal
  GI50: 6.2 µM
  TGI: 21.4 µM
EKVX NSCLC
  GI50: 1.67 µM
  TGI: 16.2 µM
NCI-H226 lung
  GI50: 7.97 µM
  TGI: 22.4 µM
HCT-116 colon
  GI50: 2.45 µM
  TGI: 13.2 µM
T-47D breast
  GI50: 2.16 µM
  TGI: 7.47 µM
COLO 205 colon
  GI50: 1.7 µM
  TGI: 9.83 µM
DU-145 prostate
  GI50: 4.75 µM
  TGI: 18.3 µM
SK-MEL-2 melanoma
  GI50: 4.54 µM
  TGI: 16.1 µM
A498 renal
  GI50: 7.06 µM
  TGI: 21.9 µM
